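Five compound concentrations were applied to cells in 96-well plates for 48 hours; endpoints were derived by simple linear interpolation of the resulting dose-response curve. GI50 = concentration required for 50% inhibition of growth.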 Active and inactive are the calls of the source. Rule as the data show it: active = GI50 up to about 1.1 µM and inactive = higher.
How the values were obtained:
Experiment in all cases: DTP human tumour cell line panel, 48 h
HCT-116 = system: HCT-116
UACC-62 = system: UACC-62
HCC 2998 = system: HCC 2998
HOP-62 = system: HOP-62
A549 = system: A549
MOLT-4 = system: MOLT-4
A498 = system: A498
TK-10 = system: TK-10
HT-29 = system: HT-29
IGROV-1 = system: IGROV-1
786-0 = system: 786-0
OVCAR-3 = system: OVCAR-3
SK-OV-3 = system: SK-OV-3
LOX IMVI = system: LOX IMVI
SK-MEL-28 = system: SK-MEL-28
NCI-H23 = system: NCI-H23
OVCAR-4 = system: OVCAR-4
CAKI-1 = system: CAKI-1
UO-31 = system: UO-31
HL-60 = system: HL-60

Measured: GI50

CC1(C)CCOC(=O)C(Cl)CC1Cl (stereo not given)
inactive: HCT-116 > 100 µM | UACC-62 > 100 µM | HCC 2998 > 100 µM | HOP-62 > 100 µM | A549 > 100 µM | MOLT-4 > 100 µM | A498 > 100 µM | TK-10 > 100 µM | HT-29 > 100 µM | IGROV-1 > 100 µM | 786-0 > 100 µM | OVCAR-3 > 100 µM | SK-OV-3 > 100 µM | LOX IMVI > 100 µM | SK-MEL-28 > 100 µM | NCI-H23 > 100 µM | OVCAR-4 > 100 µM | CAKI-1 > 100 µM

O=C(N/N=C\c1ccc(Cl)cc1)Nc1ccc2ccccc2c1
inactive: HCT-116 53.6 µM | UACC-62 34.5 µM | HCC 2998 67.5 µM | UO-31 53.7 µM | HOP-62 21.9 µM | A549 52 µM | MOLT-4 > 100 µM | A498 30.9 µM | TK-10 55.5 µM | HT-29 46.2 µM | IGROV-1 61.5 µM | 786-0 19.3 µM | OVCAR-3 > 100 µM | SK-OV-3 94.6 µM | LOX IMVI > 100 µM | SK-MEL-28 54.7 µM | NCI-H23 76.4 µM | OVCAR-4 19.8 µM | CAKI-1 41.7 µM

Cc1cc2c(=O)cc(-c3ccc(C(=O)O)cc3)oc2c(C(N)=O)c1C
inactive: HCT-116 > 100 µM | UACC-62 > 100 µM | HCC 2998 > 100 µM | UO-31 > 100 µM | HOP-62 > 100 µM | A549 > 100 µM | MOLT-4 > 100 µM | A498 > 100 µM | TK-10 > 100 µM | HT-29 > 100 µM | IGROV-1 > 100 µM | 786-0 > 100 µM | OVCAR-3 > 100 µM | SK-OV-3 > 100 µM | LOX IMVI > 100 µM | SK-MEL-28 > 100 µM | NCI-H23 > 100 µM | OVCAR-4 > 100 µM

CC(C)(C)OC(=O)NCCCCCCC(=O)Cc1ccccc1
inactive: HCT-116 84.3 µM | HCC 2998 > 100 µM | UO-31 > 100 µM | HOP-62 > 100 µM | A549 > 100 µM | MOLT-4 59 µM | A498 > 100 µM | TK-10 > 100 µM | HT-29 > 100 µM | IGROV-1 > 100 µM | 786-0 > 100 µM | OVCAR-3 > 100 µM | SK-OV-3 > 100 µM | LOX IMVI > 100 µM | SK-MEL-28 > 100 µM | NCI-H23 > 100 µM | OVCAR-4 > 100 µM | CAKI-1 > 100 µM

C[N+]12C=CC=C1C(N1CCCC1)c1scc(-c3ccccc3)c12 (stereo not given)
inactive: HCT-116 32.3 µM | UACC-62 21 µM | UO-31 > 100 µM | HOP-62 41.7 µM | A549 59.8 µM | MOLT-4 19.3 µM | A498 38.5 µM | HT-29 8.65 µM | IGROV-1 4.99 µM | 786-0 47.4 µM | OVCAR-3 7.83 µM | SK-OV-3 > 100 µM | LOX IMVI 37.4 µM | SK-MEL-28 37.2 µM | CAKI-1 > 100 µM

O=C1/C(=C/c2ccc(Cl)cc2)NC(=S)N1CN1CCCCC1
inactive: HCT-116 34.4 µM | UACC-62 13.1 µM | UO-31 28.1 µM | HOP-62 87.9 µM | A549 34.1 µM | MOLT-4 30.2 µM | A498 61.5 µM | TK-10 39 µM | HT-29 15.8 µM | IGROV-1 33.8 µM | 786-0 30.2 µM | OVCAR-3 36.7 µM | SK-OV-3 63.4 µM | LOX IMVI 37.8 µM | SK-MEL-28 61.2 µM | NCI-H23 37.2 µM

OCC(O)C(O)C(O)c1nn(-c2ccc(Cl)cc2)c2nc3cc(Cl)c(Cl)cc3nc12 (stereo not given)
inactive: HCT-116 > 100 µM | UACC-62 47 µM | HCC 2998 60.1 µM | UO-31 71.6 µM | HOP-62 20.1 µM | A549 32.4 µM | MOLT-4 52.5 µM | HL-60 > 100 µM | TK-10 32.4 µM | HT-29 > 100 µM | IGROV-1 31.8 µM | 786-0 65.6 µM | OVCAR-3 > 100 µM | SK-OV-3 23.8 µM | LOX IMVI 39.3 µM | SK-MEL-28 61.1 µM | NCI-H23 19.2 µM | OVCAR-4 > 100 µM | CAKI-1 > 100 µM

CN(C)c1ccc(/C=C/C(=O)c2ccccc2)cc1Br
inactive: UACC-62 16.5 µM | HCC 2998 19.2 µM | UO-31 18.5 µM | HOP-62 48.5 µM | A549 34.9 µM | MOLT-4 23 µM | A498 > 100 µM | TK-10 26.1 µM | HT-29 19.7 µM | IGROV-1 20.2 µM | 786-0 17.2 µM | OVCAR-3 17.8 µM | SK-OV-3 33 µM | SK-MEL-28 13.7 µM | NCI-H23 16.5 µM | OVCAR-4 15.5 µM | CAKI-1 16.3 µM

CC(=O)/C(C)=N/NC(=O)c1ccccc1O
inactive: HCT-116 > 10 µM | UACC-62 39.7 µM | HCC 2998 > 10 µM | UO-31 > 10 µM | HOP-62 > 10 µM | A549 > 10 µM | MOLT-4 31.7 µM | A498 47.9 µM | TK-10 > 10 µM | HT-29 > 10 µM | IGROV-1 75 µM | 786-0 > 10 µM | OVCAR-3 69.5 µM | SK-OV-3 > 10 µM | LOX IMVI > 10 µM | SK-MEL-28 > 10 µM | NCI-H23 > 10 µM | OVCAR-4 > 10 µM | CAKI-1 > 10 µM

N#CC(NC12CC3CC(CC(C3)C1)C2)c1ccccc1 (stereo not given)
inactive: HCT-116 > 100 µM | UACC-62 > 100 µM | HCC 2998 > 100 µM | UO-31 > 100 µM | HOP-62 > 100 µM | A549 > 100 µM | MOLT-4 > 100 µM | HL-60 > 100 µM | TK-10 > 100 µM | HT-29 > 100 µM | IGROV-1 > 100 µM | 786-0 > 100 µM | OVCAR-3 > 100 µM | SK-OV-3 > 100 µM | LOX IMVI > 100 µM | SK-MEL-28 > 100 µM | NCI-H23 > 100 µM | OVCAR-4 > 100 µM | CAKI-1 > 100 µM

COC1=CC(C)C2C[C@H]3O[C@H](O)C[C@H]4C(C)C(=O)C(O)C([C@@]2(C)C1=O)[C@@]34C (stereo not given in full)
inactive: HCT-116 > 100 µM | UACC-62 > 100 µM | HCC 2998 > 100 µM | UO-31 > 100 µM | A549 > 100 µM | MOLT-4 > 100 µM | A498 > 100 µM | TK-10 > 100 µM | HT-29 > 100 µM | IGROV-1 > 100 µM | 786-0 > 100 µM | OVCAR-3 > 100 µM | SK-OV-3 > 100 µM | LOX IMVI > 100 µM | SK-MEL-28 > 100 µM | NCI-H23 > 100 µM | CAKI-1 > 100 µM
